Experimental data published in patent US20240398837A1, “Combination Therapy For Prostate Cancer” (Janssen Pharmaceutica NV, priority 2017, published 2024).
Read-outs that look alike come from different tables or passages of the source.

Tests used:
[1] = biological target: P-glycoprotein (Homo sapiens, UniProt P08183); conditions: cited from earlier work
[2] = system: cancer cell lines that have been silenced for BRCA-1 or BRCA-2 genes, or that have BRCA-1 and BRCA-2 mutations; conditions: due to cell cycle arrest, followed by apoptosis; cited from earlier work
[3] = cited from earlier work
[4] = system: human VCaP prostate tumors; conditions: for TGI (%): day 58, vs. vehicle control; for TGI (%) / Tumor on day: p.o. Qd x 35; for ILS (%): increased life span, compared with group 1 (vehicle); for MLS: median lifespan, euthanized when tumor volume reached 1500 mm^3; for Tumor on day: tumor volume, Mean ± SEM, day 58, N=10/group
[5] = biological target: PARP-2 (Homo sapiens, UniProt Q9UGN5); conditions: in words; cited from earlier work
[6] = anesthetized dogs; cited from earlier work
[7] = system: cytochrome P450 (CYP) enzymes; conditions: in words; cited from earlier work
[8] = system: BRCA-1-deficient breast, BRCA-2-deficient pancreatic and ovarian cancers; conditions: mice; cited from earlier work
[9] = system: neurological function; conditions: conscious mice; cited from earlier work
[10] = system: CYP1A2; conditions: preclinical data; cited from earlier work
[11] = biological target: PARP-1 (Homo sapiens, UniProt P09874); conditions: in words; cited from earlier work
[12] = system: androgens; conditions: cited from earlier work
[13] = system: mCRPC; conditions: cited from earlier work
[14] = added to castration, relative to castration alone

Sequence of PARP-1 (P09874 whole entry, species assumed): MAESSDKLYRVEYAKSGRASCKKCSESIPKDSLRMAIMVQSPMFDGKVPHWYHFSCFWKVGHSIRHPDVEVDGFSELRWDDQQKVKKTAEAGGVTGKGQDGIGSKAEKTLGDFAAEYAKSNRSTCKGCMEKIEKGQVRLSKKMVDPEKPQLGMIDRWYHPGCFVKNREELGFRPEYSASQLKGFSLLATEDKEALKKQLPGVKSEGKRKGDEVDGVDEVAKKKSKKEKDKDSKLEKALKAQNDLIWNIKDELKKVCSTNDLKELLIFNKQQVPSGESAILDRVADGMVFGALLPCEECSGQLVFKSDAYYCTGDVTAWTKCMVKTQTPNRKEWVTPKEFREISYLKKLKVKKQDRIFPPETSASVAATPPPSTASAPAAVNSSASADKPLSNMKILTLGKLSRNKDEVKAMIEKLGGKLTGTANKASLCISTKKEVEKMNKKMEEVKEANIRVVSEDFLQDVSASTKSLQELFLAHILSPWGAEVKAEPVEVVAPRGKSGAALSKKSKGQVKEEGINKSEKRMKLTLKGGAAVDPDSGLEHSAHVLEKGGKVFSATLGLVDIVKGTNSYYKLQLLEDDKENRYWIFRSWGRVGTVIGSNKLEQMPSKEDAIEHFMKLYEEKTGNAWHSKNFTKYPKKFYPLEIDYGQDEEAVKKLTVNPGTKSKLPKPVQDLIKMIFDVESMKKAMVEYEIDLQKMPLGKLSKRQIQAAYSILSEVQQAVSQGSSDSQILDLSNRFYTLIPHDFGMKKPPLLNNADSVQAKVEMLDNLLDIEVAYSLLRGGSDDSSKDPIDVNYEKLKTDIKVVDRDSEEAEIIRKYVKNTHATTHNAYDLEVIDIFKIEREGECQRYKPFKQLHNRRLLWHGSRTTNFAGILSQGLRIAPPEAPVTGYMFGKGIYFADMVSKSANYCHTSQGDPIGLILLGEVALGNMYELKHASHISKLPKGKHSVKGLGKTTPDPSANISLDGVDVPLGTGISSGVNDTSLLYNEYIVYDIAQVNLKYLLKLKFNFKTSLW
Sequence of PARP-2 (Q9UGN5 whole entry, species assumed): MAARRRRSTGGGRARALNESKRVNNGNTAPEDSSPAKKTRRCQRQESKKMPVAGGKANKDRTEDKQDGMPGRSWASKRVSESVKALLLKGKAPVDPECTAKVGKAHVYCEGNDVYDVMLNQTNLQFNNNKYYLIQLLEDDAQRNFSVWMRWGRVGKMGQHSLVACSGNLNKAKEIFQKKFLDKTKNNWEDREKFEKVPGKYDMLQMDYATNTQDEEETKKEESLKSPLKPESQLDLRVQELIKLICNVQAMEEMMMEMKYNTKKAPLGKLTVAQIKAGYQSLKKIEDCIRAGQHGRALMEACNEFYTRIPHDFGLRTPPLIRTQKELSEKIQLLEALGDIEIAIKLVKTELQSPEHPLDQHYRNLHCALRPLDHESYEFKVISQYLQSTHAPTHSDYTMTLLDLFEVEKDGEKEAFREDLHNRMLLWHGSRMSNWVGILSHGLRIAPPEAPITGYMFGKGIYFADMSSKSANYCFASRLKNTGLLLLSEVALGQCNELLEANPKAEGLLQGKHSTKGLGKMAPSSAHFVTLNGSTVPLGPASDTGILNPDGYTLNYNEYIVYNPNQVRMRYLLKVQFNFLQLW
Sequence of P-glycoprotein (P08183 whole entry): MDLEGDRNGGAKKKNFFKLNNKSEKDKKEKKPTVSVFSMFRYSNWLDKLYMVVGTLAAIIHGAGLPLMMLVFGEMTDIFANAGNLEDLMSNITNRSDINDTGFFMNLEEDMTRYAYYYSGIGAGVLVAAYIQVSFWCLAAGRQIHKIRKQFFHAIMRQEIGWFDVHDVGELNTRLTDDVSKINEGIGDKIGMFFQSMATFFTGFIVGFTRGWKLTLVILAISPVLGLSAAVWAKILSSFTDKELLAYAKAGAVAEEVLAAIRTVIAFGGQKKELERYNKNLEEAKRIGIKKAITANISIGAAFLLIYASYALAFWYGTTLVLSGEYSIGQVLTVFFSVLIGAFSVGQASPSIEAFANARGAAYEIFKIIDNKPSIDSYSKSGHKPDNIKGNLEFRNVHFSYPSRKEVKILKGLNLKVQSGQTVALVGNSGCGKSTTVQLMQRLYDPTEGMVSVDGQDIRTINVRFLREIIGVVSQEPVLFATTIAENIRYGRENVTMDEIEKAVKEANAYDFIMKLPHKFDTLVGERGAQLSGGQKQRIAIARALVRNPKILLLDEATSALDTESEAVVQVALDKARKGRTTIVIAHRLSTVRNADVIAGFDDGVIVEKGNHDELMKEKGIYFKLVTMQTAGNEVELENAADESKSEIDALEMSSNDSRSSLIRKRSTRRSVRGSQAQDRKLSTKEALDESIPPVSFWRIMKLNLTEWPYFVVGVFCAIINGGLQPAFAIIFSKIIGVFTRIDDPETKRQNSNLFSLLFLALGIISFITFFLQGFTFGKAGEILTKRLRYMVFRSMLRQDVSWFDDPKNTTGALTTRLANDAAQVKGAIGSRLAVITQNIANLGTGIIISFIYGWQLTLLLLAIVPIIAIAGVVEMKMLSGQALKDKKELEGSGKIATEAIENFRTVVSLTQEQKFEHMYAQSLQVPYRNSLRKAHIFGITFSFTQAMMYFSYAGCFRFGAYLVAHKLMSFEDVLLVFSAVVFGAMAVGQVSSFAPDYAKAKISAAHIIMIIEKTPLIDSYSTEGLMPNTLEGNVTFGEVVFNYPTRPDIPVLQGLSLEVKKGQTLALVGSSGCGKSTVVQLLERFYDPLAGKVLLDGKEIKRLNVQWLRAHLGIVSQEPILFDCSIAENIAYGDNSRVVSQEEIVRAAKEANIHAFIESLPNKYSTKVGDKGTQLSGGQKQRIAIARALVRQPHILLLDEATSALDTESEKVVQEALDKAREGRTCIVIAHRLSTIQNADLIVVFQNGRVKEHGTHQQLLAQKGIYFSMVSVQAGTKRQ

In the case of `NC(=O)c1cccc2cn(-c3ccc([C@@H]4CCCNC4)cc3)nc12` [Niraparib, 2-[4-[(3S)-piperidin-3-yl]phenyl]indazole-7-carboxamide], the P-glycoprotein substrate [1] is listed as “is a P-glycoprotein substrate”, the anti-proliferative activity [2] is listed as “demonstrates anti-proliferative activity” and the metabolism ([3]; in vitro, multiple metabolic enzymes (both CYPs and non-CYPs)) is listed as “limited metabolism”. The clearance ([3]; in words) was “low clearance drug”, the “TGI (%)” value [4] was 20.8% and the “inhibition of tumor growth” value ([4]; days 41-55, compared with vehicle control) was “approximately 25%”. For the same compound, the “MLS / survival benefit” value ([4]; in words, compared with the vehicle control group) was “did not increase MLS or provide a significant survival benefit”, the “ILS (%)” value [4] was −0.6% and the “MLS” value [4] was 79 days. The Tumor on day [4] was 664 ± 50 mm^3, the “activity against PARP-2” value [5] was “potent activity” and the QRS cardiac interval [6] was “increased”. The QTc interval [6] was “unaffected”, the heart rate [6] was “increased” and the mean arterial pressure [6] was “increased”. The “inhibition or induction of CYP enzymes” value [7] was “not a potent inhibitor or inducer”, the antitumor activity [8] was “has antitumor activity” and the “effect on neurological function” value [9] was “no effect”. The “potential to induce CYP1A2 enzymes” value [10] was “moderate potential” and the “activity against PARP-1” value [11] was “potent activity”.

For `CC(=O)O[C@H]1CC[C@@]2(C)C(=CC[C@@H]3[C@@H]2CC[C@]2(C)C(c4cccnc4)=CC[C@@H]32)C1` [abiraterone acetate, 3β-acetoxy-17-(3-pyridyl)androsta-5,16-diene], the “reduction of levels of DHEA” value [12, 14] is listed as 97-98%, the “reduction of levels of DHT” value [12, 14] is listed as 85% and the “reduction of levels of androstenedione” value [12, 14] is listed as 77-78%. For the same compound, the circulating testosterone levels ([12]; after administration of abiraterone acetate, castration gives 20 ng/dL) was “less than 1 ng/dL”.

For `O=C(c1cc(Cc2n[nH]c(=O)c3ccccc23)ccc1F)N1CCN(C(=O)C2CC2)CC1` [olaparib], the “responders that were biomarker-positive for anomalies in DNA-repair genes” value ([13]; 14 of the 16 responding patients) is given as 88%, the “patients with a response” value ([13]; all patients, sixteen of 49, 95% CI 20%, 48%) is given as 33% and the “Overall survival (OS), median” value ([13]; biomarker-negative group) is given as 7.5 months. For the same compound, the “Radiographic progression-free survival (rPFS), median” value ([13]; biomarker-negative group) was 2.7 months, the “patients with a response” value ([13]; biomarker-negative, 2 of 33) was 6% and the “Overall survival (OS), median” value ([13]; biomarker-positive group) was 13.8 months. For the same compound, the “Radiographic progression-free survival (rPFS), median” value ([13]; biomarker-positive group) was 9.8 months, the “patients with a response” value ([13]; patients with ATM aberrations) was 4 of 5 and the “patients with a response” value ([13]; patients with BRCA-2 loss) was “all 7”.

With `C[C@]12CC[C@H](O)CC1=CC[C@@H]1[C@@H]2CC[C@]2(C)C(c3cccnc3)=CC[C@@H]12` [Abiraterone] the “TGI (%)” value [4] was 37.6%, the “inhibition of tumor growth” value ([4]; days 37-55, compared with vehicle control) was 35%-46% and the “ILS (%)” value [4] was 13.1%. For the same compound, the “MLS” value [4] was 88 days, the Tumor on day [4] was 523 ± 51 mm^3 and the “increase of MLS” value ([4]; vs the vehicle control group) was 10.5 days.
